The record followed here is PubChem BioAssay (NCI).

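Five compound concentrations were applied to cells in 96-well plates for 48 hours; endpoints were derived by simple linear interpolation of the resulting dose-response curve. TGI is the concentration that stops growth completely.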 Where a SMILES comes first, the peptide text is derived from it. [ ]: non-standard residue; d: D form. The star is where a group is joined. Octanoyl = CCCCCCCC(=O)*; Aib = CC(C)(N)C(=O)O; tBu = CC(C)(C)* Some results are limits rather than exact numbers.

Common to all, as to assay: growth of human tumour cells (NCI), 48 h
In experiment [1] the test system is ACHN renal.
The subject of experiment [2] is KM12 colon.
Experiment [3] concerns SF-268 CNS.
For experiment [4], the system named is NCI-H460 lung.
Experiment [5] concerns DU-145 prostate.
Experiment [6] concerns CCRF-CEM leukemia.
Experiment [7] has as its system SK-MEL-28 melanoma.
Experiment [8] concerns LOX IMVI melanoma.
For experiment [9], the system named is SNB-19 CNS.
For experiment [10], the system named is UO-31 renal.
Experiment [11] concerns M14 melanoma.
The test system of experiment [12] is HOP-62 NSCLC.
Experiment [13] concerns UACC-62 melanoma.
The subject of experiment [14] is SK-MEL-5 melanoma.
In experiment [15] the test system is HT29 colon.
Experiment [16] relates to MCF7 breast.

Consider `c1ccc2c(c1)Nc1nc3nonc3nc1N2`, for which the TGI in experiment [1], in experiment [2], in experiment [3], in [4], in experiment [5] and in [6] was over 100 µM each time. In addition, the TGI in experiment [7], in [8], in experiment [9], in [10], in experiment [11] and in experiment [12] was over 100 µM throughout. The TGI in experiment [13], in experiment [14], in experiment [15] and in experiment [16] was over 100 µM each time.
Regarding `N/N=C1\CCCc2c1no[n+]2[O-]`, the TGI in experiment [1], in experiment [2], in experiment [3], in experiment [4], in experiment [5] and in experiment [6] was over 100 µM throughout. The TGI in experiment [7], in experiment [8], in experiment [9], in experiment [10], in experiment [11] and in experiment [12] was over 100 µM each time. For the same compound, the TGI in experiment [13], in experiment [14], in [15] and in [16] was over 100 µM throughout.
On to `O=c1[nH]nc(Cc2ccc(Cl)cc2)n1/N=C\c1ccc(/C=N/n2c(Cc3ccc(Cl)cc3)n[nH]c2=O)cc1`, for which the TGI in experiment [1], in experiment [2], in experiment [3], in experiment [4], in experiment [5] and in experiment [6] was over 100 µM throughout. The TGI in experiment [7] was over 100 µM; in experiment [8] it was over 100 µM; in experiment [9], over 100 µM; in experiment [10], over 100 µM; in experiment [11], over 100 µM; in [12], 57.5 µM. The TGI in experiment [13], in experiment [14], in experiment [15] and in [16] was over 100 µM each time.
In the case of `Cc1cc(C)c2c(=O)n(CN3CCC(O)(c4ccccc4)CC3)sc2n1`, the TGI was 37.9 µM in [1]; over 100 µM in experiment [2]; over 100 µM in experiment [3]; 95.3 µM in [4]; over 100 µM in experiment [5]; over 100 µM in experiment [6]. The TGI was over 100 µM in experiment [7]; over 100 µM in experiment [8]; over 100 µM in experiment [9]; 33.8 µM in experiment [10]; over 100 µM in experiment [11]; over 100 µM in experiment [12]. In addition, the TGI was over 100 µM in experiment [13], over 100 µM in [14], 98.9 µM in [15] and over 100 µM in experiment [16].
Consider `O=[N+]([O-])c1cc(-[n+]2cc([O-])on2)ccc1F`, for which the TGI turned out to be 30.7 µM in experiment [1]; 31.5 µM in [2]; 28.9 µM in experiment [3]; 39.3 µM in experiment [4]; 25.4 µM in experiment [5]; 38.6 µM in experiment [6]. For the same compound, the TGI is 29.8 µM in [7]; 31.1 µM in experiment [8]; 21.3 µM in [9]; 13.1 µM in experiment [10]; 29.6 µM in experiment [11]; 30.3 µM in experiment [12]. Also, the TGI in [13] turned out to be 30.8 µM; in experiment [14], 28.4 µM; in experiment [15], 33.3 µM; in experiment [16], 29.4 µM.
For `CC(C)NC(=O)OCCN=C1c2ccccc2CCc2ccccc21`, the TGI in [1] is 68.4 µM; in experiment [2], over 100 µM; in [3], 80.7 µM; in experiment [4] it was 76.9 µM; in experiment [5], 88.9 µM; in [6] it was 46.5 µM. Besides, the TGI worked out at 40.3 µM in [7]; 72.7 µM in experiment [8]; 66.8 µM in experiment [9]; 58.7 µM in experiment [10]; 39.7 µM in [11]; 70.1 µM in experiment [12]. For the same compound, the TGI stood at 40.8 µM in experiment [13], 27.4 µM in [14], 47.6 µM in experiment [15] and 57.5 µM in experiment [16].
For `COC(=O)CCn1cnc2c(SC)ncnc21`, the TGI in experiment [1], in experiment [2], in experiment [3], in [4], in experiment [5] and in [6] was over 100 µM throughout. Further, the TGI in [7], in experiment [8], in experiment [9], in experiment [10], in [11] and in experiment [12] was over 100 µM each time. Moreover, the TGI in [13], in experiment [14], in experiment [15] and in experiment [16] was over 100 µM in each case.
In the case of `CC(=O)OCC1OC(n2c(N)c(C#N)c(-c3ccc(C)cc3)c(C#N)c2=S)C(OC(C)=O)C(OC(C)=O)C1OC(C)=O` (stereo unspecified), the TGI in experiment [1] is over 100 µM; in [2], over 100 µM; in [3], 28.5 µM; in [4] it was over 100 µM; in [5] it was 28.7 µM; in experiment [6] it was 78.4 µM. For the same compound, the TGI in experiment [7] was over 100 µM; in experiment [8], over 100 µM; in experiment [9] it was 34.8 µM; in [10], 31.8 µM; in experiment [11], 30 µM; in experiment [12], 47.2 µM. Also, the TGI in experiment [13] was over 100 µM; in [14] it was 23.2 µM; in experiment [15] it was 39.1 µM; in experiment [16], 51.3 µM.
For `COc1cc2c(c3c1c(=O)c1ccccc1n3C)C=CC1(CCCCC1)O2`, the TGI in experiment [1] was over 10 µM; in experiment [2], over 2.21 µM; in experiment [3], over 10 µM; in [4], over 10 µM; in experiment [5], over 10 µM; in [6] it was over 10 µM. Further, the TGI in experiment [7] was over 10 µM; in [8], over 10 µM; in experiment [9], over 10 µM; in experiment [10], 0.255 µM; in experiment [11], 7.92 µM; in experiment [12], over 9.54 µM. In addition, the TGI in experiment [13] was 9.86 µM; in experiment [14], over 6.15 µM; in [15] it was over 10 µM; in experiment [16], over 9.55 µM.
On to `CN(C)c1ccc(/C=C(\NC(=O)c2ccccc2)C(=O)NC(CCC(=O)O)C(=O)O)cc1` (stereo unspecified), for which the TGI in experiment [1], in [2], in experiment [3], in experiment [4], in experiment [5] and in [6] was over 100 µM each time. The TGI in experiment [7], in experiment [8], in experiment [9], in experiment [10], in [11] and in [12] was over 100 µM throughout. The TGI in [13], in experiment [14], in [15] and in [16] was over 100 µM in each case.
Consider `Oc1c(C2=N[C@H]3CCCC[C@@H]3N2)ccc2ccccc12`, for which the TGI in experiment [1], in [2], in experiment [3], in experiment [4], in experiment [5] and in [6] was over 100 µM each time. The TGI in experiment [7] was over 100 µM; in experiment [8], over 100 µM; in experiment [9], over 96.4 µM; in [10] it was over 100 µM; in [11] it was over 100 µM; in experiment [12] it was over 80.6 µM. Also, the TGI in [13], in experiment [14], in experiment [15] and in experiment [16] was over 100 µM in each case.
Regarding `CCOC(=O)c1c(-c2ccc(OC)cc2)c(C#N)c(=S)n(C2OC(CO)C(O)C(O)C2O)c1-c1ccccc1` (stereo unspecified), the TGI in experiment [1], in experiment [2], in experiment [3], in experiment [4], in [5] and in experiment [6] was over 100 µM each time. Also, the TGI is over 100 µM in experiment [7]; over 100 µM in experiment [8]; over 100 µM in experiment [9]; over 100 µM in experiment [10]; over 100 µM in [11]; 80.7 µM in [12]. The TGI in experiment [13] was over 100 µM; in experiment [14], 26.5 µM; in [15] it was over 100 µM; in experiment [16], over 100 µM.
As to `N#CCCN(CCC#N)c1ccc(/C=C2\N=C(c3ccccc3)N(c3ccccn3)C2=O)cc1`, the TGI in [1], in experiment [2], in [3], in [4], in experiment [5] and in experiment [6] was over 100 µM in each case. In addition, the TGI in experiment [7], in experiment [8], in experiment [9], in experiment [10], in experiment [11] and in experiment [12] was over 100 µM throughout. Also, the TGI in experiment [13], in experiment [14], in experiment [15] and in experiment [16] was over 100 µM each time.
Regarding `CCCCCCCC(=O)NC(C)(C)C(=O)NC(COC(C)(C)C)C(=O)NC(CC(C)C)C(=O)NC(C)(C)C(=O)NC(COC(C)(C)C)C(=O)NC(COC(C)(C)C)C(=O)NC(CC(C)C)C(=O)NC(C)(C)C(=O)NC(COC(C)(C)C)C(=O)NC(C(=O)NC(CC(C)C)C(=O)OC)C(C)CC` (stereo unspecified) (Octanoyl-[Aib]S(tBu)L[Aib]S(tBu)S(tBu)L[Aib]S(tBu)IL-OMe; configuration not given here), the TGI in experiment [1] is 20.8 µM; in [2] it was 22 µM; in [3] it was over 25 µM; in experiment [4], 13.8 µM; in experiment [5] it was over 25 µM; in experiment [6] it was 11.9 µM. For the same compound, the TGI in experiment [7] is over 25 µM; in [8] it was 10.6 µM; in experiment [9] it was over 25 µM; in experiment [10], over 25 µM; in experiment [11], over 25 µM; in [12] it was over 25 µM. In addition, the TGI in experiment [13] stood at 23.7 µM; in experiment [14], 16.2 µM; in experiment [15] it was 11.9 µM; in experiment [16], 17 µM.
Take `NCCCN1CCN(CC(=O)O)CCN(CCCN)CCN(CC(=O)O)CC1`: the TGI in experiment [1], in experiment [2], in experiment [3], in [4], in [5] and in experiment [6] was over 100 µM each time. For the same compound, the TGI in experiment [7], in experiment [8], in experiment [9], in [10], in experiment [11] and in experiment [12] was over 100 µM in each case. Besides, the TGI was over 100 µM in experiment [13], 21.3 µM in [14], over 100 µM in [15] and over 100 µM in experiment [16].
Take `CN(CCCCN(C)CCc1ccc(Cl)c(Cl)c1)CCCCN1CCCC1`: the TGI turned out to be 3.64 µM in experiment [1]; 1.92 µM in experiment [2]; 3.12 µM in experiment [3]; 2.98 µM in [4]; 8.92 µM in experiment [5]; 0.39 µM in [6]. Besides, the TGI in experiment [7] was determined as 1.06 µM; in [8], 1.66 µM; in experiment [9], 5.23 µM; in experiment [10], 0.96 µM; in experiment [11], 2.16 µM; in [12], 3.74 µM. The TGI turned out to be 3.42 µM in [13], 3.19 µM in experiment [14], 1.88 µM in [15] and 2.84 µM in [16].
